Data from patent US20250353873A1, “COMPOUNDS AND METHODS FOR MODULATING APOE EXPRESSION” (Ionis Pharmaceuticals, Inc., priority 2024, published 2025).
Strand notation (5' to 3'): a small letter for the sugar, then the base; units joined by * are phosphorothioate-linked, units joined directly phosphodiester-linked; [ ] holds rarer units or linkages, { } end groups; capitals alone tell only the bases. [ms] = mesyl phosphoramidate linkage; e = 2'-O-(2-methoxyethyl) (MOE); k = constrained ethyl (cEt); [5mC] = 5-methylcytosine; d = 2'-deoxy (DNA)

Columns and labels:
human APOE RNA [1] = test: Activity in APOE C57BL/6NTac-Apoeem7250 knock-in mice, single ICV bolus, 16 weeks (Example 12); type: in vivo; conditions: single ICV bolus 300 μg, 16 weeks post treatment, normalized to mouse Ppia
Outline: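 A single 300 μg intracerebroventricular dose was given, with PBS-treated mice as reference; cortical and spinal cord tissue was taken 16 weeks later. RT-qPCR quantified human APOE RNA, Ppia-normalized, expressed relative to PBS animals (% control).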

human APOE RNA [2] = test: Activity in APOE C57BL/6NTac-Apoeem7250 knock-in mice, single ICV bolus, 8 weeks (Example 11); type: in vivo; conditions: for APOE RNA (% control) Cortex / APOE RNA (% control) Spinal Cord: single ICV bolus 300 μg, 8 weeks post treatment, normalized to mouse Ppia
Procedure: Modified oligonucleotides described above were tested in the APOE C57BL/6NTac-Apoeem7250 knock-in mouse model described above.
Each mouse received a single ICV bolus of 300 μg of modified oligonucleotide. A group of 3-4 mice received a single ICV bolus with PBS as a negative control.
Eight weeks post treatment, mice were sacrificed and RNA was extracted from cortical brain tissue and spinal cord for quantitative real-time RT-PCR analysis of RNA expression of APOE using human primer probe set RTS3073 (described herein above). APOE RNA levels were normalized to mouse Ppia. Mouse Ppia was amplified using primer probe set m_cyclo24 (described herein above). Results are presented as percent human APOE RNA relative to the amount of human APOE RNA in PBS treated animals, (% control). Each experiment is identified in separate tables below.

Row | Substance | APOE RNA (% control) Cortex (human APOE RNA [1]) [% control] | APOE RNA (% control) Spinal Cord (human APOE RNA [1]) [% control] | APOE RNA (% control) Cortex (human APOE RNA [2]) [% control] | APOE RNA (% control) Spinal Cord (human APOE RNA [2]) [% control] | reduction of human APOE RNA in the cortex (human APOE RNA [2]; APOE knock-in mouse model, 8 weeks post administration, assay of Example 11) [%]
1 | 1693048: 5-10-5 MOE gapmer CTTGGTGAATCTTTATTAAA, linkages ssssszzzzssssszosss (antisense e[5mC]*eT*eT*eG*eG*dT[ms]dG[ms]dA[ms]dA[ms]dT*d[5mC]*dT*dT*dT*dA[ms]eTeT*eA*eA*eA) [compound 1693048] | 105 | 71 | 97 | 87 | 
2 | 1693051: 5-10-5 MOE gapmer TTGGTGAATCTTTATTAAAC, linkages ssosszzzsssssssosss (antisense eT*eT*eGeG*eT*dG[ms]dA[ms]dA[ms]dT*d[5mC]*dT*dT*dT*dA*dT*eTeA*eA*eA*e[5mC]) [compound 1693051] | 97 | 79 | 114 | 76 | 
3 | 1693041: 5-10-5 MOE gapmer CTTGGTGAATCTTTATTAAA, linkages ssossszzzssssssosss (antisense e[5mC]*eT*eTeG*eG*dT*dG[ms]dA[ms]dA[ms]dT*d[5mC]*dT*dT*dT*dA*eTeT*eA*eA*eA) [compound 1693041] | 84 | 85 | 75 | 74 | 
4 | 1693042: 5-10-5 MOE gapmer CTTGGTGAATCTTTATTAAA, linkages sssosszzzssssssssss (antisense e[5mC]*eT*eT*eGeG*dT*dG[ms]dA[ms]dA[ms]dT*d[5mC]*dT*dT*dT*dA*eT*eT*eA*eA*eA) [compound 1693042] | 90 | 65 | 77 | 81 | 
5 | 1693050: 5-10-5 MOE gapmer TTGGTGAATCTTTATTAAAC, linkages soosszzzsssssssosss (antisense eT*eTeGeG*eT*dG[ms]dA[ms]dA[ms]dT*d[5mC]*dT*dT*dT*dA*dT*eTeA*eA*eA*e[5mC]) [compound 1693050] | 100 | 63 | 77 | 63 | 
6 | 1809741: mixed MOE/cEt gapmer CTTGGTGAATCTTTATTAAAC, sugar eeeeekddddddddddeeeee, linkages ssoooszzsssssszsooss (e[5mC]*eT*eTeGeGkT*dG[ms]dA[ms]dA*dT*d[5mC]*dT*dT*dT*dA[ms]dT*eTeAeA*eA*e[5mC]) [compound 1809741] |  |  | 33 | 28 | 
7 | 1809818 (eT*eTeGkG*dT*dG[ms]dA[ms]dA[ms]dT*d[5mC]*dT*dT*dT*dA[ms]kT*kTeAeA*eA*e[5mC]; antisense) [Compound 1809818] |  |  | 42 | 36 | 
8 | 1810069: mixed MOE/cEt gapmer CTTGGTGAATCTTTATTAAAC, sugar eeeeekddddddddddeeeee, linkages zsossszzzssssszsoosz (e[5mC][ms]eT*eTeG*eG*kT*dG[ms]dA[ms]dA[ms]dT*d[5mC]*dT*dT*dT*dA[ms]dT*eTeAeA*eA[ms]e[5mC]) [compound 1810069] |  |  | 24 | 27 | 
9 | 1809813 (eT*eTeGkG*dT*dG[ms]dA[ms]dA[ms]dT*d[5mC]*dT*dT*dT*dA[ms]kT*kT*eA*eA*eA*e[5mC]; antisense) [Compound 1809813] |  |  | 37 | 32 | 
10 | Compound No. 1517578: comparator of WO 2022/066956; CTTGGTGAATCTTTATTAAA, sugar eeeeeddddddddddeeeee, linkages sooosssssssssssooss (MOE gapmer, mixed PS/PO linkages, chemistry not fully specified) [reference compound] |  |  | 66 | 47 | 34
11 | 1809690: mixed MOE/cEt gapmer CTTGGTGAATCTTTATTAA, sugar eeeekddddddddddkkek, linkages sosssszzzssssszoss (e[5mC]*eTeT*eG*kG*dT*dG[ms]dA[ms]dA[ms]dT*d[5mC]*dT*dT*dT*dA[ms]kTkT*eA*kA) [compound 1809690] |  |  | 26 | 24 | 
12 | 1809688: mixed MOE/cEt gapmer CTTGGTGAATCTTTATTAA, sugar eeeekddddddddddkkee, linkages sosssszzzssssszoss (e[5mC]*eTeT*eG*kG*dT*dG[ms]dA[ms]dA[ms]dT*d[5mC]*dT*dT*dT*dA[ms]kTkT*eA*eA) [compound 1809688] |  |  | 22 | 37 | 
13 | 1652913: 5-10-5 MOE gapmer GGTGAATCTTTATTAAACTA, linkages soooszssssszsszooss (antisense eG*eGeTeGeA*dA[ms]dT*d[5mC]*dT*dT*dT*dA[ms]dT*dT*dA[ms]eAeAe[5mC]*eT*eA) [compound 1652913] |  |  | 75 | 33 | 
14 | 1809744: mixed MOE/cEt gapmer CTTGGTGAATCTTTATTAAAC, sugar eeeekkddddddddddeeeee, linkages zsoooszzsssssszsoosz (e[5mC][ms]eT*eTeGkGkT*dG[ms]dA[ms]dA*dT*d[5mC]*dT*dT*dT*dA[ms]dT*eTeAeA*eA[ms]e[5mC]) [compound 1809744] |  |  | 19 | 11 | 
15 | 1652907: 5-10-5 MOE gapmer GGTGAATCTTTATTAAACTA, linkages soooszzssssssssooss (antisense eG*eGeTeGeA*dA[ms]dT[ms]d[5mC]*dT*dT*dT*dA*dT*dT*dA*eAeAe[5mC]*eT*eA) [compound 1652907] |  |  | 54 | 16 | 
16 | 1652899: 6-10-4 MOE gapmer TGGTGAATCTTTATTAAACT, linkages sooooossssssssssoss (antisense eT*eGeGeTeGeAdA*dT*d[5mC]*dT*dT*dT*dA*dT*dT*dA*eAeA*e[5mC]*eT) [compound 1652899] |  |  | 57 | 16 | 
17 | 1652919: 6-10-4 MOE gapmer GGTGAATCTTTATTAAACTA, linkages soooooszzzssssssoss (antisense eG*eGeTeGeAeAdT*d[5mC][ms]dT[ms]dT[ms]dT*dA*dT*dT*dA*dA*eAe[5mC]*eT*eA) [compound 1652919] |  |  | 90 | 54 | 
